According to US7629294B2, “Pyrazolopyrimidines” (Bayer CropScience LP, priority 2004, dated 2009):

Assays:
[1] = logP (HPLC)
[2] = physchem

CCOP(=O)(OCC)c1cnn2c(NC(C)C(C)(C)C)c(-c3ccc(F)cc3Cl)c(Cl)nc12 (stereo not shown) [Example XXIII, diethyl {5-chloro-6-(2-chloro-4-fluorophenyl)-7-[(1,2,2-trimethylpropyl)-amino]pyrazolo[1,5-a]pyrimidin-3-yl}phosphonate]
chromatographic logP [1]: 4.48

CCOP(=O)(O)c1cnn2c(NC(C)C(C)(C)C)c(-c3ccc(F)cc3Cl)c(Cl)nc12 (stereo not shown) [Example XXIV, ethyl hydrogen {5-chloro-6-(2-chloro-4-fluorophenyl)-7-[(1,2,2-trimethylpropyl)-amino]pyrazolo[1,5-a]pyrimidin-3-yl}phosphonate]
chromatographic logP [1]: 3.01

CCC(C)c1c(Cl)nc2c(C(=O)OC)cnn2c1N[C@@H](C)C(F)(F)F (stereo partly drawn) [methyl 5-chloro-6-(sec-butyl)-7-[(S)-3-trifluoroisopropylamino]pyrazolo[1,5-a]pyrimidine-3-carboxylate]
chromatographic logP ([2]; logP): 3.76

COC(=O)c1cnn2c(N[C@@H](C)C(C)C)c(C3CCCC3)c(Cl)nc12 [methyl 5-chloro-6-cyclopentyl-7-[(S)-3-methyl-2-butylamino]pyrazolo[1,5-a]pyrimidine-3-carboxylate]
chromatographic logP ([2]; logP): 4.72

COC(=O)c1cnn2c(N[C@@H](C)C(F)(F)F)c(C3CCCC3)c(Cl)nc12 [methyl 5-chloro-6-cyclopentyl-7-[(S)-3-trifluoroisopropylamino]pyrazolo[1,5-a]pyrimidine-3-carboxylate]
chromatographic logP ([2]; logP): 3.89

COC(=O)c1cnn2c(O)c(-c3c(F)cccc3Cl)c(O)nc12 [methyl 6-(2-chloro-6-fluorophenyl)-5,7-dihydroxypyrazolo[1,5-a]pyrimidine-3-carboxylate]
chromatographic logP ([2]; logPs): 0.55

COC(=O)c1cnn2c(NC(C)C(C)C)c(-c3sccc3C)c(OC)nc12 (stereo not shown) [methyl 7-(1,2-dimethylpropylamino)-5-methoxy-6-(3-methylthiophen-2-yl)pyrazolo[1,5-a]-pyrimidine-3-carboxylate]
chromatographic logP ([2]; logPs): 4.6
